Test results reported in US20060135569A1, “Use of benzisoselenazolone compounds against ischemic myocardial damage” (priority 2002, published 2006).
Marks after values point to notes of the source that are not given here.

Assays:
[1] = test system: TA97; TA98; TA100; TA102; experiment: Ames (mutagenesis) test, overall result in 4 strains; assay type: cell-based; details: 0.5, 5, 50 and 500 μg/dish
Description: (§1) To assess the mutagenic effects of 5 compounds (IMM-004; IMM-065; IMM-127; IMM-128; IMM-313), the Ames test was performed in 4 strains (TA97; TA98; TA100; TA102). The experiment was conducted with compounds at 4 concentration levels (0.5, 5, 50 and 500 μg/dish). […]

[2] = test system: TA102; experiment: Ames test, strain TA102; assay type: cell-based
Description: as §1

[3] = test system: isolated rat hearts subjected to ischemia-reperfusion (I/R); experiment: Isolated heart subjected to ischemia/reperfusion injury (arrhythmia); details: for AAT: arrhythmic occurrence time, Time / VF (ventricular fibrillation) Incidence rate (%) / VPS (ventricular premature beats) Incidence rate (%) / VT (ventricular tachycardia) Incidence rate (%): 10^−6 M, isolated heart ischemia/reperfusion
Description: Based on the pre-electrophysiological cell model screening, we have compared the inhibition ratios of the outward current by reverse-transportation of Na^+/Ca^2+ exchange, and further in vitro tests on isolated rat hearts subjected to ischemia-reperfusion (I/R) were conducted. Prolongation of ventricular arrhythmic, incidence rate of ventricular extrasystole, ventricular tachycardia/ventricular fibrillation (VT/VF) were recorded to evaluate the protective actions of drugs on myocardial injury.
On the basis of above screening results obtained from electrophysiological studies, and the result from comparative study on the research of the inhibitory effect of compounds on reverse mode Na^+/Ca^2+ exchange process, 7 effective compounds were subjected to in vitro study. Among which, IMM-313, IMM-004 and IMM-132 have structures containing chlorine; IMM-127, IMM-128 and IMM-129 have structures containing fluorine; and IMM-065 has a structure containing OH. The experiment performed in the isolated heart subjected to ischemia/reprefusion insult. Prolongation of ventricular arrhythmic, incidence of ventricular extrasystole, ventricular tachycardia/ventricular fibrillation (VT/VF) were recorded in order to evaluate the protective actions of drugs on myocardial injury.

[4] = test system: TA97; experiment: Ames test, strain TA97; assay type: cell-based
Description: as §1

[5] = biological target: T1, Na^+/Ca^2+ exchanger (Cavia porcellus, UniProt P48766); experiment: Na^+/Ca^2+ exchange current (INa—Ca), whole-cell patch clamp, intracellular Na^+ overload cell model; assay type: cell-based, guinea pig
T1 construct: endogenous in cells; host or cells: freshly isolated guinea pig ventricular myocytes
Source text: 1. Establishment of Assaying Method for Biphasical Current Detection in Na^+/Ca^2+ Exchange System
Since the reverse mode of Na^+/Ca^2+ exchange process is one of the main mechanisms involving in ischemia/reperfusion insult, it is of great importance to establish cell model represented reverse mode Na^+/Ca^2+ exchange process for the development of drugs against ischemic injury. Therefore, we successfully established cell model of reverse mode Na^+/Ca^2+ exchange system by intracellular Na^+ dialysis technique, and recorded Na^+/Ca^2+ exchange currents by patch clamp experiment.
Internal solution contained certain concentration of NaCl was filled to the microcatheter, and ion exchange process between the cellular and internal solutions was conducted after whole cell currents were recorded by patch clamp. Na^+ contained in the internal solution was dialyzed into the cell; result in the high intracellular Na^+ concentration. After that, the cell was champed at a holding potential of −40 mV, then depolarized to +60 mV and followed by a conversely declining ramp stimuli at a speed of 80 mV·s^−1 and 2 s conditioning pulse, then repolarized to −100 mV with a frequency of 0.05 Hz. Under the stimulation protocol, current from outward to the inward direction was recorded by perfusing modified biphasical Tyrode solution (in which the outward and inward currents can be recorded simultaneously) with the addition of 1 mmol·L^−1 of BaCl2 and 2 mmol·L^−1 of CsCl to block K^+ channels, 1 μmol·L^−1 of verapamil to block L-type Ca^2+ channels, and 20 μmol·L^−1 of ouabain to block Na^+/K^+ ATPase, and 20 mmol·L^−1 of TEA to block potassium channels. The recorded inward currents were presented in a linear manner owing to the blockade of other time-dependent currents. With the increase of intracellular Na^+ level and prolongation of time, the reverse mode of Na^+/Ca^2+ exchange process was activated. […] Under such experimental conditioning, the maximum reverse mode current was recorded 3 min after cell crushed. No significant “run-down” was observed within the record period of 8 minutes. The inward and outward current were inhibited by 5 mmol·L^−1 of Ni^2+ treatment, and the experiment result in two current-voltage curves in the absence or presence of Ni^2+. The Ni^2+ sensitive current, also called electrophysiological Na^+/Ca^2+ exchange current (INa·Ca), was the minus result of two current-voltage curves. The reverse mode potential of INa—Ca was about −20 mV
Male guinea pigs weighting 250˜280 g provided by the Animal Center of the Chinese Academy of Medical Sciences were hammered and sacrificed. The chest was opened and the heart was removed quickly. Fatty tissue and pericardium were removed in a Ca^2+-free solution at 4° C., and heart was sequentially mounted on a Langendorff apparatus. First, the heart was perfused conversely via the aorta for 6 min with Ca^2+-free solution in order to wash out residual blood, then the heart expands and the color of it turns to pink. Then the heart was perfused with Ca^2+-free solution containing 0.1 mg/ml of pronase E, 0.5 mg/ml defatted bovine serum albumin (BSA) and 150 μM Ca^2+ for 2˜3 min, until the heart expanded and became soft. The atrium was removed, and the digested heart was minced with scissors, stirred in a beaker at 37° C. for 5˜10 min. The supernatant was diluted with Ca^2+-free solution containing 0.5 mg/ml BSA and 1.8 mM Ca^2+. The supernatant was placed at room temperature (20˜24° C.) for 1 hr and then subjected to the experiment. During the whole perfusion period, pressure was kept at 70 cmH2O and the temperature of solution was kept at 37° C. with continuously gassed with 95% O2 and 5% CO2.
Rod-shaped cells with clear striations and intact membrane were used. […]

[6] = test system: TA100; experiment: Ames test, strain TA100; assay type: cell-based
Description: as §1

[7] = test system: TA98; experiment: Ames test, strain TA98; assay type: cell-based
Description: as §1

[8] = test system: acute myocardial ischemia in anesthetized dogs; experiment: Acute myocardial ischemia and infarction in anesthetized dogs; assay type: in vivo, dog
Description: Dogs were divided into three groups: 1, vehicle control group, PEG 1 ml/kg, n=5; 2, dilthiazem group, 5 mg/kg, n=5; 3, IMM-004 group, 30 mg/kg, n=5. The tested drugs were prepared in distilled water at volume of 1 ml/kg. The tested items were administrated via duodenum by animals.

[9] = test system: arrhythmia caused by ischemia/reperfusion insults in anaesthetic rats; experiment: Ischemia/reperfusion arrhythmia in anaesthetic rats, intravenous injection; assay type: in vivo, rat; details: 3 mg/Kg intravenous (femoral vein), rats
Source text: (1) Protective Effects of the Tested Compounds on Myocardial Insults in Rats after Intravenously Injection
Arrhythmic potency induced by myocardial insults was used to assess the potential protective effect of the compounds.

[10] = Example 1 table, myocardial cell
[11] = screening of 22 candidate compounds
[12] = N-BT staining, Dilthiazem 5 mg/kg, IMM-004 30 mg/kg, % according to b137

O=c1c2cc(F)ccc2[se]n1-c1cccnc1 [IMM-128, 5-fluoro-2-(3-pyridyl)-1,2-benz-isoselenazol-3(2H)-one]
mutagenic effect (Ames test) [1]: No evidence for a mutagenic effect | TA102 +S9 ([2]; 0.5 μg/dish): 277.33 ± 15.17 | TA102 −S9 ([2]; 0.5 μg/dish): 214.67 ± 8.22 | TA102 +S9 ([2]; 5 μg/dish): 234.67 ± 80.37 | TA102 −S9 ([2]; 5 μg/dish): 270.67 ± 12.04 | TA102 +S9 ([2]; 50 μg/dish): 333.00 ± 60.83 | TA102 −S9 ([2]; 50 μg/dish): 210.00 ± 31.54 | TA102 +S9 ([2]; 500 μg/dish): 274.00 ± 37.98 | TA102 −S9 ([2]; 500 μg/dish): 296.00 ± 22.86 | AAT: arrhythmic occurrence time, Time [3]: 22.10 ± 3.49 min | VF (ventricular fibrillation) Incidence rate (%) [3]: 50% | VPS (ventricular premature beats) Incidence rate (%) [3]: 25% | VT (ventricular tachycardia) Incidence rate (%) [3]: 50% | TA97 +S9 ([4]; 0.5 μg/dish): 70.00 ± 11.86 | TA97 −S9 ([4]; 0.5 μg/dish): 59.33 ± 10.27 | TA97 +S9 ([4]; 5 μg/dish): 63.00 ± 31.00 | TA97 −S9 ([4]; 5 μg/dish): 52.67 ± 3.21 | TA97 +S9 ([4]; 50 μg/dish): 60.33 ± 17.59 | TA97 −S9 ([4]; 50 μg/dish): 59.00 ± 3.56 | TA97 +S9 ([4]; 500 μg/dish): 78.50 ± 21.50 | TA97 −S9 ([4]; 500 μg/dish): 65.33 ± 2.35 | Inhibitory rate of inward INa—Ca (%) [5, 10]: 42% | Inhibitory rate of outward INa—Ca (%) [5, 10]: 44% | Inhibitory rate of inward INa—Ca (%) [5, 11]: 42% | Inhibitory rate of outward INa—Ca (%) [5, 11]: 44* % | TA100 +S9 ([6]; 0.5 μg/dish): 167.33 ± 17.98 | TA100 −S9 ([6]; 0.5 μg/dish): 127.33 ± 20.04 | TA100 +S9 ([6]; 5 μg/dish): 149.67 ± 19.60 | TA100 −S9 ([6]; 5 μg/dish): 116.50 ± 30.50 | TA100 +S9 ([6]; 50 μg/dish): 141.33 ± 16.36 | TA100 −S9 ([6]; 50 μg/dish): 135.00 ± 14.99 | TA100 +S9 ([6]; 500 μg/dish): 107.67 ± 13.47 | TA100 −S9 ([6]; 500 μg/dish): 100.00 ± 33.67 | TA98 +S9 ([7]; 0.5 μg/dish): 40.67 ± 16.05 | TA98 −S9 ([7]; 0.5 μg/dish): 64.00 ± 6.48 | TA98 +S9 ([7]; 5 μg/dish): 46.00 ± 3.00 | TA98 −S9 ([7]; 5 μg/dish): 69.33 ± 12.81 | TA98 +S9 ([7]; 50 μg/dish): 56.00 ± 9.63 | TA98 −S9 ([7]; 50 μg/dish): 71.33 ± 12.26 | TA98 +S9 ([7]; 500 μg/dish): 31.33 ± 6.24 | TA98 −S9 ([7]; 500 μg/dish): 83.67 ± 5.79

COc1ccc([C@@H]2Sc3ccccc3N(CCN(C)C)C(=O)[C@@H]2OC(C)=O)cc1 [Dilthiazem, reference compound]
blood oxygen concentration ([8]; 5 mg/kg): Significant increase | myocardial oxygen consumption ([8]; 5 mg/kg): decrease | severity of myocardial ischemia (Σ-ST), in words ([8]; 5 mg/kg via duodenum, from 90 min, lasted for 180 min after administration): reduced | Infarction area/ heart area [8, 12]: 1.54 ± 0.40 | Infarction area/ventricle area [8, 12]: 3.54 ± 3.74 | Infarction area mm^2 ([8]; N-BT staining, Dilthiazem 5 mg/kg, IMM-004 30 mg/kg, X ± SD): 186.50 ± 21.2*** mm^2 | Myocardial infarction size, in words ([8]; N-BT staining, IMM-004 30 mg/kg, dilthiazem 5 mg/kg): significantly reduced | Coronary flows, in words ([8]; after treatment, dilthiazem 5 mg/kg, IMM-004 30 mg/kg): significantly increased

C/C(=N\O)c1ccc(-n2[se]c3ccccc3c2=O)cc1 [IMM-065]
mutagenic effect (Ames test) [1]: No evidence for a mutagenic effect | TA102 +S9 ([2]; 0.5 μg/dish): 270.00 ± 10.00 | TA102 −S9 ([2]; 0.5 μg/dish): 244.00 ± 12.33 | TA102 +S9 ([2]; 5 μg/dish): 308.00 ± 31.16 | TA102 −S9 ([2]; 5 μg/dish): 246.00 ± 24.00 | TA102 +S9 ([2]; 50 μg/dish): 339.33 ± 48.99 | TA102 −S9 ([2]; 50 μg/dish): 217.33 ± 15.43 | TA102 +S9 ([2]; 500 μg/dish): 287.33 ± 41.89 | TA102 −S9 ([2]; 500 μg/dish): 215.00 ± 75.59 | protective effects on myocardial insults ([3]; 10^−6M, isolated heart): significant protective effects | AAT: arrhythmic occurrence time, Time [3]: 13.09 ± 3.76 min | VF (ventricular fibrillation) Incidence rate (%) [3]: 50% | VPS (ventricular premature beats) Incidence rate (%) [3]: 30% | VT (ventricular tachycardia) Incidence rate (%) [3]: 70% | TA97 +S9 ([4]; 0.5 μg/dish): 249.33 ± 35.83 | TA97 −S9 ([4]; 0.5 μg/dish): 62.67 ± 4.49 | TA97 +S9 ([4]; 5 μg/dish): 76.00 ± 15.29 | TA97 −S9 ([4]; 5 μg/dish): 73.67 ± 6.64 | TA97 +S9 ([4]; 50 μg/dish): 82.67 ± 12.92 | TA97 −S9 ([4]; 50 μg/dish): 69.67 ± 3.77 | TA97 +S9 ([4]; 500 μg/dish): 0 | TA97 −S9 ([4]; 500 μg/dish): 59.67 ± 0.94 | incidence and duration of VT, VF, VE / ventricular arrhythmic [9]: no significant effect | Inhibitory rate of inward INa—Ca (%) [5, 10]: 43% | Inhibitory rate of outward INa—Ca (%) [5, 10]: 55% | Inhibitory rate of inward INa—Ca (%) [5, 11]: 43% | Inhibitory rate of outward INa—Ca (%) [5, 11]: 55* % | TA100 +S9 ([6]; 0.5 μg/dish): 176.67 ± 24.57 | TA100 −S9 ([6]; 0.5 μg/dish): 153.67 ± 13.47 | TA100 +S9 ([6]; 5 μg/dish): 167.00 ± 58.86 | TA100 −S9 ([6]; 5 μg/dish): 60.33 ± 19.91 | TA100 +S9 ([6]; 50 μg/dish): 180.33 ± 29.83 | TA100 −S9 ([6]; 50 μg/dish): 108.67 ± 6.79 | TA100 +S9 ([6]; 500 μg/dish): 0 | TA100 −S9 ([6]; 500 μg/dish): 62.33 ± 20.53 | TA98 +S9 ([7]; 0.5 μg/dish): 56.50 ± 4.50 | TA98 −S9 ([7]; 0.5 μg/dish): 52.00 ± 3.74 | TA98 +S9 ([7]; 5 μg/dish): 61.67 ± 11.15 | TA98 −S9 ([7]; 5 μg/dish): 42.00 ± 10.80 | TA98 +S9 ([7]; 50 μg/dish): 42.00 ± 5.72 | TA98 −S9 ([7]; 50 μg/dish): 45.33 ± 5.44 | TA98 +S9 ([7]; 500 μg/dish): 168.00 ± 32.00 | TA98 −S9 ([7]; 500 μg/dish): 54.00 ± 12.83
